Experimental data as given in ChEMBL document CHEMBL1201862, “PubChem BioAssay data set” (2004).
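Exposure lasted 48 hours, with cells grown in 96-well plates and compounds tested at five concentrations. GI50 = concentration required for 50% inhibition of growth.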 Calls of active or inactive are those of the source. Rule as the data show it: active = GI50 up to about 1.1 µM and inactive = higher.

Key:
Experiment in all cases: DTP human tumour cell line panel, 48 h
IGROV-1 = system: IGROV-1
MCF7 = system: MCF7
SN12C = system: SN12C
786-0 = system: 786-0
NCI-H226 = system: NCI-H226
UO-31 = system: UO-31
MDA-MB-231 = system: MDA-MB-231
Hs-578T = system: Hs-578T
UACC-257 = system: UACC-257
SR = system: SR
CAKI-1 = system: CAKI-1
SK-OV-3 = system: SK-OV-3
RPMI-8226 = system: RPMI-8226
SNB-19 = system: SNB-19
OVCAR-8 = system: OVCAR-8
SK-MEL-28 = system: SK-MEL-28
SK-MEL-2 = system: SK-MEL-2
T47D = system: T47D
OVCAR-3 = system: OVCAR-3
HCC 2998 = system: HCC 2998

Measured: GI50

Cc1ccc(C(=C2Sc3ccccc3S2)C(=C2Sc3ccccc3S2)c2ccc(C)s2)s1
inactive: IGROV-1 > 100 µM | MCF7 > 100 µM | SN12C > 100 µM | 786-0 > 100 µM | NCI-H226 > 100 µM | UO-31 > 100 µM | MDA-MB-231 42.8 µM | Hs-578T > 100 µM | UACC-257 > 100 µM | SR 47.5 µM | CAKI-1 > 100 µM | SK-OV-3 > 100 µM | RPMI-8226 > 100 µM | SNB-19 > 100 µM | OVCAR-8 > 100 µM | SK-MEL-28 > 100 µM | SK-MEL-2 > 100 µM | T47D > 100 µM | OVCAR-3 > 100 µM | HCC 2998 > 100 µM

CN(CCNC(=O)c1cc(-c2ccccc2)nc2ccccc12)CCNC(=O)c1cc(-c2ccccc2)nc2ccccc12
inactive: IGROV-1 3.6 µM | MCF7 3.87 µM | SN12C > 100 µM | 786-0 5.96 µM | NCI-H226 14.6 µM | UO-31 7.1 µM | MDA-MB-231 > 50.4 µM | Hs-578T 6.18 µM | UACC-257 3.05 µM | SR 2.98 µM | CAKI-1 > 100 µM | SK-OV-3 > 100 µM | RPMI-8226 4.99 µM | SNB-19 > 60 µM | OVCAR-8 > 28.1 µM | SK-MEL-28 2.19 µM | SK-MEL-2 4.41 µM | T47D > 30.5 µM | OVCAR-3 23 µM | HCC 2998 2.43 µM

c1ccc(/C(=N/Nc2ccccn2)c2cccnn2)cc1
active: NCI-H226 1.07 µM | UO-31 0.885 µM | SR 0.522 µM
inactive: IGROV-1 1.79 µM | MCF7 3.43 µM | SN12C 2.15 µM | 786-0 1.38 µM | MDA-MB-231 2.57 µM | Hs-578T 11.8 µM | UACC-257 3.94 µM | CAKI-1 1.75 µM | SK-OV-3 2.58 µM | RPMI-8226 2.17 µM | SNB-19 10.3 µM | OVCAR-8 1.87 µM | SK-MEL-28 > 34.2 µM | SK-MEL-2 12.7 µM | T47D 9.16 µM | OVCAR-3 1.92 µM | HCC 2998 5.37 µM

C=C(C)[C@@H]1CC=C(CO)CC1 [PERILLYL ALCOHOL]
inactive: IGROV-1 574 µM | MCF7 > 10 µM | SN12C 555 µM | 786-0 195 µM | NCI-H226 251 µM | UO-31 410 µM | MDA-MB-231 > 10 µM | Hs-578T > 10 µM | UACC-257 533 µM | SR 152 µM | CAKI-1 > 10 µM | SK-OV-3 748 µM | RPMI-8226 > 10 µM | SNB-19 348 µM | OVCAR-8 145 µM | SK-MEL-28 201 µM | SK-MEL-2 122 µM | T47D > 10 µM | OVCAR-3 150 µM | HCC 2998 753 µM

O=C(O)c1cc2c(cc1CC(Cc1ccccc1)C(=O)O)CCC2 (stereo not given)
inactive: IGROV-1 > 100 µM | MCF7 > 100 µM | SN12C > 100 µM | 786-0 > 100 µM | NCI-H226 > 100 µM | UO-31 > 100 µM | MDA-MB-231 > 100 µM | Hs-578T > 100 µM | UACC-257 > 100 µM | SR > 100 µM | CAKI-1 > 100 µM | SK-OV-3 > 100 µM | RPMI-8226 > 100 µM | SNB-19 > 100 µM | OVCAR-8 > 100 µM | SK-MEL-28 > 100 µM | SK-MEL-2 > 100 µM | T47D > 100 µM | OVCAR-3 > 100 µM | HCC 2998 > 100 µM

O=C1C=CC(=O)c2c1ccc1c3ccccc3n(Cc3ccccc3)c21
active: RPMI-8226 0.231 µM
inactive: IGROV-1 21.6 µM | MCF7 17.1 µM | SN12C 21.6 µM | 786-0 16.2 µM | NCI-H226 7.29 µM | UO-31 20.2 µM | MDA-MB-231 20.3 µM | Hs-578T 42.2 µM | UACC-257 19 µM | SR 10.9 µM | CAKI-1 17.2 µM | SK-OV-3 > 100 µM | SNB-19 > 100 µM | OVCAR-8 28.2 µM | SK-MEL-28 24.4 µM | SK-MEL-2 31.5 µM | T47D 25.1 µM | OVCAR-3 17.3 µM | HCC 2998 > 37 µM

CCN(CC)c1cc2c3c(c1)CCCN3CCC2
inactive: IGROV-1 > 10 µM | MCF7 > 10 µM | SN12C > 10 µM | 786-0 > 10 µM | NCI-H226 > 10 µM | UO-31 > 10 µM | MDA-MB-231 > 10 µM | Hs-578T > 10 µM | UACC-257 > 10 µM | SR > 10 µM | CAKI-1 > 10 µM | SK-OV-3 > 10 µM | RPMI-8226 > 10 µM | SNB-19 > 10 µM | OVCAR-8 > 10 µM | SK-MEL-28 > 10 µM | SK-MEL-2 > 10 µM | T47D > 10 µM | OVCAR-3 > 10 µM | HCC 2998 > 10 µM

CCCC(=O)OCOC(=O)N(C)/N=N/c1ccc(C(=O)OCC)cc1
inactive: IGROV-1 32 µM | MCF7 17.8 µM | SN12C 27.2 µM | 786-0 17.7 µM | NCI-H226 92.7 µM | UO-31 22 µM | MDA-MB-231 36.5 µM | Hs-578T 27.7 µM | UACC-257 33.7 µM | SR 23.7 µM | CAKI-1 43.8 µM | SK-OV-3 41.5 µM | RPMI-8226 49.1 µM | SNB-19 68.9 µM | OVCAR-8 27.4 µM | SK-MEL-28 57.7 µM | SK-MEL-2 15.2 µM | T47D 25.2 µM | OVCAR-3 33.7 µM | HCC 2998 15.2 µM

CNC(=O)c1nnn(C2CCCCC2)c1S
active: OVCAR-3 0.0885 µM
inactive: IGROV-1 > 100 µM | MCF7 > 100 µM | SN12C > 100 µM | 786-0 > 100 µM | NCI-H226 > 100 µM | UO-31 > 100 µM | MDA-MB-231 > 100 µM | Hs-578T > 100 µM | UACC-257 > 100 µM | SR > 100 µM | CAKI-1 > 100 µM | SK-OV-3 > 100 µM | RPMI-8226 > 100 µM | SNB-19 > 100 µM | OVCAR-8 > 100 µM | SK-MEL-28 > 100 µM | SK-MEL-2 > 100 µM | T47D > 100 µM | HCC 2998 > 100 µM

CCCN(CCCc1ccccc1)CCc1ccc2[nH]c(=S)[nH]c2c1
inactive: IGROV-1 14.1 µM | MCF7 28.2 µM | SN12C > 100 µM | 786-0 12.6 µM | NCI-H226 66.5 µM | UO-31 6.75 µM | MDA-MB-231 14.7 µM | Hs-578T 39.8 µM | UACC-257 25.6 µM | SR 2.89 µM | CAKI-1 28.9 µM | SK-OV-3 53.8 µM | RPMI-8226 12.4 µM | SNB-19 26.1 µM | OVCAR-8 28.8 µM | SK-MEL-28 20.1 µM | SK-MEL-2 19.3 µM | T47D 12.1 µM | OVCAR-3 37.1 µM | HCC 2998 13.3 µM
